Reference: patent US11279736B2, “Conformationally-preorganized, MiniPEG-containing gamma-peptide nucleic acids” (CARNEGIE MELLON UNIVERSITY, priority 2011, dated 2022)
[RMPγPNA-N] = PNA unit with R-MP-gamma backbone modification (N: the base)

Tests used:
complementary DNA strand = assay: UV-melting / van't Hoff analysis of PNA-DNA hybrid duplexes; type: binding; conditions: PNA-DNA duplex
Description: (§1) FIGS. 2A-2B illustrate UV-melting profiles of PNA-DNA (FIG. 2A) and PNA-RNA (FIG. 2B) hybrid duplexes at a strand concentration of […] each in 10 mM sodium phosphate buffer at pH 7.4. While both the heating and cooling runs were performed because they both have nearly identical profiles UV-melting for only the heating runs are shown.
UV-melting experiments were performed to determine the effect of MP on the thermal stability of PNA oligomers following hybridization to DNA or an RNA. FIG. 3A illustrates that the incorporation of a single miniPEG side-chain stabilized a PNA-DNA duplex by 4° C. […] However, increase in thermal stability tapers off to a value of about 2.3° C. per unit for the fully-modified oligomer, that is an oligomer made up of R-MP-γPNA groups only (e.g., PNA5).
(§2) Further insights related to the contribution of miniPEG to the stability of the PNA-DNA duplex was obtained from van′t Hoff analysis. Data in Table 2 show the thermodynamic parameters associated with hybridization of PNA1 through 5 to a complementary DNA or RNA strand.

complementary RNA strand = assay: UV-melting / van't Hoff analysis of PNA-RNA hybrid duplexes; type: binding
Description: as §1
A similar pattern is observed for a R-MP-γPNA-RNA duplex, but the observed increase in thermal stability is lower for a R-MP-γPNA-RNA duplex as compared to a R-MP-γPNA-DNA duplex (FIG. 3B). The enhancement in thermal stability of a R-MP-γPNA-RNA duplex is only 3° C. for the first R-MP-γPNA-monomer that is incorporated into the PNA oligomer and this gain in thermal stability reduces to about 1.2° C. per R-MP-γPNA monomer for an oligomer made entirely R-MP-γPNA (PNA5). In contrast the gain in thermal stability is about 2.3° C./unit for R-MP-γPNA-DNA duplexes.
as §2

[1] = system: immobilized complementary DNA; assay: Surface plasmon resonance (SPR) hybridization kinetics; type: binding
Description: FIG. 4 illustrates surface plamon resonance (SPR) sensorgrams (solid black lines) and fits (dotted lines) for hybridization of PNA probes to immobilized complementary DNA. Solutions contained 30 nM PNA. Error bars at t=420 sec illustrate standard deviations for three separate trials.
Surface plasmon resonance (SPR) analysis is used to study the hybridization kinetics of ^R-MPγPNA-DNA and ^R-MPγPNA-RNA duplexes. Briefly, SPR was performed as follows. According to one embodiment, the PNA probe was immobilized to the chip while the DNA target was captured from solution. In another embodiment, a biotinylated version of the DNA target is immobilized on a streptavidin-conjugated, carboxymethylated dextran chip at a relatively low surface density (ca. 100 response units) of DNA targets to limit mass transport effects on the association kinetics. Solutions containing 10-50 nM PNA oligomers are allowed to flow over the chip for about 420 seconds, at which point the flow is switched to a PNA-free buffer to allow net dissociation of the hybridized PNA.

[2] = system: DNA: 3′-[…]-5, X = A, C, G, T (SEQ ID NO: 11); assay: Sequence mismatch discrimination, thermal stability of PNA-DNA duplexes; type: binding
Description: (§3) CD, NMR, and X-ray data have shown that γPNAs derived from L-amino acids adopt a right-handed helix, and that the helix becomes more rigid as more γ-chiral units are added in the backbone. One would therefore expect a fully-modified PNA5 to hybridize to DNA and RNA targets with greater sequence selectivity than PNA1. To verify this hypothesis, thermal stabilities of PNA5-DNA and PNA5-RNA duplexes containing perfectly-matched (PM) and single-base mismatched (MM) targets were determined and compared to those from an earlier study with PNA1-DNA and PNA1-RNA duplexes. […] The ΔTm ranges from −17 to −21° C. for PNA5-DNA and −16 to −20° C. for PNA5-RNA containing a single-base mismatch (X=C, G, T), as compared to −10 to −14° C. for PNA1-DNA and −11 to −18° C. for PNA1-RNA duplex (Table 4). The level of sequence discrimination is greater for PNA5-DNA than for PNA1-DNA, and similar, if not slightly better, for PNA5-RNA as compared to PNA1-RNA.

[3] = system: RNA: 3′-CGUACAXACU-5, X = A, C, G, U (SEQ ID NO: 12); assay: Sequence mismatch discrimination, thermal stability of PNA-RNA duplexes; type: binding
Description: as §3

[4] = Temperature-dependent CD measurements of PNA oligomers; type: physicochemical; conditions: 80° C.; 5 μM oligomer, 10 mM sodium phosphate buffer pH 7.4
Description: FIG. 1A illustrates CD spectra of PNA5 and PNA2 (Inset) as a function of temperature. Melting transition (Tm) of PNA2 through 5 as determined by CD, monitored at 260 nm. The oligomer concentration was 5 μM, prepared in 10 mM sodium phosphate buffer at pH 7.4.

[5] = 298 K, averages of three trials
[6] = PNA-RNA duplex, 298 K, UV-melting curve fitting

Substance: H-GCATGTTTGA-NH2 [PNA5] (all [RMPγPNA-N], methylation of C not given here; C-terminal amide)
- increase in thermal stability per miniPEG unit (complementary DNA strand; UV-melting): about 2.3 °C per unit
- −ΔG° (complementary DNA strand; [5]): 18.6 ± 0.48 kcal/mol
- −ΔH° (complementary DNA strand; [5]): 88.9 ± 2.63 kcal/mol
- −ΔTS° (complementary DNA strand; [5]): 70.3 ± 2.39 kcal/mol
- gain in thermal stability per R-MP-γPNA monomer (complementary RNA strand; PNA-RNA duplex, UV-melting): about 1.2 °C per R-MP-γPNA monomer
- −ΔG° (complementary RNA strand; [6]): 18.6 kcal/mol
- −ΔH° (complementary RNA strand; [6]): 87.2 kcal/mol
- −ΔTS° (complementary RNA strand; [6]): 68.6 kcal/mol
- differential Tm (ΔTm), RNA versus DNA binding (complementary RNA strand; duplex with RNA compared to duplex with DNA): identical thermal stability
- association rate constant ka ([1]; SPR, 1:1 binding model): 800000 M⁻¹ s⁻¹
- dissociation rate constant kd ([1]; SPR, 1:1 binding model, † values approach limits of detection): 0.4 × 10^−4 ^† s^−1
- SPR-derived Kd relative to Kd determined by UV melting experiments ([1]; Table 3 versus Table 2, DNA target): 1200 fold
- Tm ([2]; C<>T mismatch): 47 °C
- ΔTm between the perfect match and mismatch ([2]; C<>T mismatch): (−21) ° C.
- Tm ([2]; G<>T mismatch): 48 °C
- ΔTm between the perfect match and mismatch ([2]; G<>T mismatch): (−20) ° C.
- Tm ([2]; T(U)<>T mismatch): 51 °C
- ΔTm between the perfect match and mismatch ([2]; T(U)<>T mismatch): (−17) ° C.
- Tm ([2]; X = A (A-T perfect match)): 68 °C
- ΔTm, single-base mismatch (X=C, G, T) ([2]; range over mismatches): −17 to −21 °C
- Tm ([3]; C<>T mismatch): 48 °C
- ΔTm between the perfect match and mismatch ([3]; C<>T mismatch): (−20) ° C.
- Tm ([3]; G<>T mismatch): 52 °C
- ΔTm between the perfect match and mismatch ([3]; G<>T mismatch): (−16) ° C.
- Tm ([3]; T(U)<>T mismatch): 48 °C
- ΔTm between the perfect match and mismatch ([3]; T(U)<>T mismatch): (−20) ° C.
- Tm ([3]; X = A (A-T perfect match)): 68 °C
- ΔTm, single-base mismatch (X=C, G, T) ([3]; range over mismatches): −16 to −20 °C
- CD profile / base-stacking at high temperature [4]: distinct CD profile
